Measured values from ChEMBL document CHEMBL4823314, “Design, synthesis and biological evaluation of novel acridine and quinoline derivatives as tubulin polymerization inhibitors with anticancer activities” (Bioorg Med Chem, 2021).
The source made the active and inactive calls. No cut-off for these calls is given here.

Tests used:
B16-F10 [1] = assay: Antiproliferative activity against mouse B16-F10 cells assessed as reduction in cell viability measured after 48 hrs by MTT assay; type: functional, cell-based; conditions: B16-F10, 48 h
HepG2 [2] = assay: Antiproliferative activity against human HepG2 cells assessed as reduction in cell viability measured after 48 hrs by MTT assay; type: functional, cell-based; conditions: HepG2, 48 h
B16-F10 [3] = assay: Antiproliferative activity against mouse B16-F10 cells assessed as reduction in cell viability incubated for 48 hrs by MTT assay; type: functional, cell-based; conditions: dose 2.5-10 µM
HepG2 [4] = assay: Antiproliferative activity against human HepG2 cells assessed as reduction in cell viability incubated for 48 hrs by MTT assay; type: functional, cell-based; conditions: dose 2.5-10 µM
HeLa [5] = assay: Antiproliferative activity against human HeLa cells assessed as reduction in cell viability incubated for 48 hrs by MTT assay; type: functional, cell-based; conditions: dose 2.5-10 µM
MCF7 [6] = assay: Antiproliferative activity against human MCF7 cells assessed as reduction in cell viability incubated for 48 hrs by MTT assay; type: functional, cell-based; conditions: dose 2.5-10 µM
B16-F10 [7] = assay: Antiproliferative activity against mouse B16-F10 cells assessed as reduction in cell viability at 0.5 uM by MTT assay; type: functional, cell-based; conditions: time 12-72 hrs, TDE = time-dependent effect
HepG2 [8] = assay: Antiproliferative activity against human HepG2 cells assessed as reduction in cell viability at 0.5 uM by MTT assay; type: functional, cell-based; conditions: time 12-72 hrs, TDE = time-dependent effect
HeLa [9] = assay: Antiproliferative activity against human HeLa cells assessed as reduction in cell viability at 0.5 uM by MTT assay; type: functional, cell-based; conditions: time 12-72 hrs, TDE = time-dependent effect
MCF7 [10] = assay: Antiproliferative activity against human MCF7 cells assessed as reduction in cell viability at 0.5 uM by MTT assay; type: functional, cell-based; conditions: time 12-72 hrs, TDE = time-dependent effect
HepG2 [11] = assay: Inhibition of colony formation in human HepG2 cells incubated for 24 hrs by crystal violet staining based analysis; type: functional, cell-based; conditions: dose 0.1-1 µM
[12] = Inhibition of pig brain tubulin polymerization by spectrophotometric method; type: tissue-based, Sus scrofa
Sus scrofa = species: Sus scrofa; assay: Inhibition of pig brain tubulin polymerization measured upto 20 mins by spectrophotometric method; conditions: dose 3-100 µM, time min <=20
HepG2 [13] = assay: Antimigratory activity in human HepG2 cells assessed as inhibition of cell migration incubated for 24 hrs by scratch wound healing assay; type: functional, cell-based; conditions: dose 0.1-1 µM
HepG2 [14] = assay: Cell cycle arrest in human HepG2 cells assessed as accumulation at G1 phase at 0.5 uM measured after 48 hrs by propidium iodide staining based flow cytometry analysis (reference value: 56.11%); type: functional
HepG2 [15] = assay: Cell cycle arrest in human HepG2 cells assessed as accumulation at G1 phase at 1 uM measured after 48 hrs by propidium iodide staining based flow cytometry analysis (reference value: 56.11%); type: functional
HepG2 [16] = assay: Cell cycle arrest in human HepG2 cells assessed as accumulation at G1 phase at 5 uM measured after 48 hrs by propidium iodide staining based flow cytometry analysis (reference value: 56.11%); type: functional
HepG2 [17] = assay: Cell cycle arrest in human HepG2 cells assessed as accumulation at S phase at 0.5 uM measured after 48 hrs by propidium iodide staining based flow cytometry analysis (reference value: 34.13%); type: functional
HepG2 [18] = assay: Cell cycle arrest in human HepG2 cells assessed as accumulation at S phase at 1 uM measured after 48 hrs by propidium iodide staining based flow cytometry analysis (reference value: 34.13%); type: functional
HepG2 [19] = assay: Cell cycle arrest in human HepG2 cells assessed as accumulation at S phase at 5 uM measured after 48 hrs by propidium iodide staining based flow cytometry analysis (reference value: 34.13%); type: functional
HepG2 [20] = assay: Cell cycle arrest in human HepG2 cells assessed as accumulation at G2/M phase at 0.5 uM measured after 48 hrs by propidium iodide staining based flow cytometry analysis (reference value: 9.27%); type: functional
HepG2 [21] = assay: Cell cycle arrest in human HepG2 cells assessed as accumulation at G2/M phase at 1 uM measured after 48 hrs by propidium iodide staining based flow cytometry analysis (reference value: 9.27%); type: functional
HepG2 [22] = assay: Cell cycle arrest in human HepG2 cells assessed as accumulation at G2/M phase at 5 uM measured after 48 hrs by propidium iodide staining based flow cytometry analysis (reference value: 9.27%); type: functional
HepG2 [23] = assay: Induction of apoptosis in human HepG2 cells assessed as necrotic cells at 0.5 uM measured after 48 hrs by AnnexinV-FITC/propidium iodide staining based flow cytometry (reference value: 1.05%); type: functional
HepG2 [24] = assay: Induction of apoptosis in human HepG2 cells assessed as necrotic cells at 1 uM measured after 48 hrs by AnnexinV-FITC/propidium iodide staining based flow cytometry (reference value: 1.05%); type: functional
HepG2 [25] = assay: Induction of apoptosis in human HepG2 cells assessed as necrotic cells at 5 uM measured after 48 hrs by AnnexinV-FITC/propidium iodide staining based flow cytometry (reference value: 1.05%); type: functional
HepG2 [26] = assay: Induction of apoptosis in human HepG2 cells assessed as late apoptotic cells at 0.5 uM measured after 48 hrs by AnnexinV-FITC/propidium iodide staining based flow cytometry (reference value: 5.93%); type: functional
HepG2 [27] = assay: Induction of apoptosis in human HepG2 cells assessed as late apoptotic cells at 1 uM measured after 48 hrs by AnnexinV-FITC/propidium iodide staining based flow cytometry (reference value: 5.93%); type: functional
HepG2 [28] = assay: Induction of apoptosis in human HepG2 cells assessed as late apoptotic cells at 5 uM measured after 48 hrs by AnnexinV-FITC/propidium iodide staining based flow cytometry (reference value: 5.93%); type: functional
HepG2 [29] = assay: Induction of apoptosis in human HepG2 cells assessed as viable cells at 0.5 uM measured after 48 hrs by AnnexinV-FITC/propidium iodide staining based flow cytometry (reference value: 82.2%); type: functional; conditions: read-out: Activity
HepG2 [30] = assay: Induction of apoptosis in human HepG2 cells assessed as viable cells at 1 uM measured after 48 hrs by AnnexinV-FITC/propidium iodide staining based flow cytometry (reference value: 82.2%); type: functional; conditions: read-out: Activity
HepG2 [31] = assay: Induction of apoptosis in human HepG2 cells assessed as viable cells at 5 uM measured after 48 hrs by AnnexinV-FITC/propidium iodide staining based flow cytometry (reference value: 82.2%); type: functional; conditions: read-out: Activity
HepG2 [32] = assay: Induction of apoptosis in human HepG2 cells assessed as early apoptotic cells at 0.5 uM measured after 48 hrs by AnnexinV-FITC/propidium iodide staining based flow cytometry (reference value: 10.8%); type: functional
HepG2 [33] = assay: Induction of apoptosis in human HepG2 cells assessed as early apoptotic cells at 1 uM measured after 48 hrs by AnnexinV-FITC/propidium iodide staining based flow cytometry (reference value: 10.8%); type: functional
HepG2 [34] = assay: Induction of apoptosis in human HepG2 cells assessed as early apoptotic cells at 5 uM measured after 48 hrs by AnnexinV-FITC/propidium iodide staining based flow cytometry (reference value: 10.8%); type: functional
HepG2 [35] = assay: Inhibition of colony formation in human HepG2 cells at 1 uM incubated for 24 hrs by crystal violet staining based analysis; type: functional, cell-based
HepG2 [36] = assay: Disruption of microtubule network in human HepG2 cells incubated for 12 hrs by DAPI staining based immunofluorescence analysis; type: functional, cell-based; conditions: dose 0.1-1 µM
HeLa [37] = assay: cells; conditions: Homo sapiens, 48 h
Description: Antiproliferative activity against human HeLa cells assessed as reduction in cell viability measured after 48 hrs by MTT assay

MCF7 [38] = assay: cells; conditions: Homo sapiens, MCF7, 48 h
Description: Antiproliferative activity against human MCF7 cells assessed as reduction in cell viability measured after 48 hrs by MTT assay

Compound: COc1ccc(N(C)c2cccc3ncccc23)cc1
- IC50 (B16-F10 [1]): 563 nM
- IC50 (HepG2 [2]): 261 nM
- Activity (B16-F10 [3]): Dose-Dependent Effect
- Activity (HepG2 [4]): Dose-Dependent Effect
- Activity (HeLa [5]): Dose-Dependent Effect
- Activity (MCF7 [6]): Dose-Dependent Effect
- Activity (B16-F10 [7]): Tde
- Activity (HepG2 [8]): Tde
- Activity (HeLa [9]): Tde
- Activity (MCF7 [10]): Tde
- inhibition (HepG2 [11]): Dose-Dependent Effect
- IC50 [12]: 12400 nM
- inhibition (Sus scrofa): Dose-Dependent Effect
- Activity (HepG2 [13]): Dose-Dependent Effect
- Activity (HepG2 [14]): 42.3%
- Activity (HepG2 [15]): 32.66%
- Activity (HepG2 [16]): 38%
- Activity (HepG2 [17]): 38.55%
- Activity (HepG2 [18]): 38.01%
- Activity (HepG2 [19]): 30.88%
- Activity (HepG2 [20]): 17.46%
- Activity (HepG2 [21]): 27.32%
- Activity (HepG2 [22]): 32.13%
- Activity (HepG2 [23]): 2.58%
- Activity (HepG2 [24]): 1.38%
- Activity (HepG2 [25]): 2.5%
- Activity (HepG2 [26]): 23.3%
- Activity (HepG2 [27]): 28.5%
- Activity (HepG2 [28]): 39.4%
- viability at 0.5 µM (HepG2 [29]): 25.2%
- viability at 1 µM (HepG2 [30]): 10.6%
- viability at 5 µM (HepG2 [31]): 19.3%
- Activity (HepG2 [32]): 48.9%
- Activity (HepG2 [33]): 59.6%
- Activity (HepG2 [34]): 38.8%
- inhibition (HepG2 [35]): Active
- Activity (HepG2 [36]): Active
- IC50 (HeLa [37]): 2050 nM
- IC50 (MCF7 [38]): 609 nM
